# Experimental data as given in article PMC8188212, “Multi‐Arm PEG/Peptidomimetic Conjugate Inhibitors of DR6/APP Interaction Block Hematogenous Tumor Cell Extravasation” (Advanced Science, 2021).
# Square brackets hold non-standard residues; d marks the D form. Ends that are not written are not given here. Peptide text beside a SMILES is read from it.
# Biological target: T1, DR6 protein (Homo sapiens, UniProt O75509)
# T1 construct: purchased Sino Biology, Inc. (Shanghai, China)
# T1 sequence (O75509 42-655): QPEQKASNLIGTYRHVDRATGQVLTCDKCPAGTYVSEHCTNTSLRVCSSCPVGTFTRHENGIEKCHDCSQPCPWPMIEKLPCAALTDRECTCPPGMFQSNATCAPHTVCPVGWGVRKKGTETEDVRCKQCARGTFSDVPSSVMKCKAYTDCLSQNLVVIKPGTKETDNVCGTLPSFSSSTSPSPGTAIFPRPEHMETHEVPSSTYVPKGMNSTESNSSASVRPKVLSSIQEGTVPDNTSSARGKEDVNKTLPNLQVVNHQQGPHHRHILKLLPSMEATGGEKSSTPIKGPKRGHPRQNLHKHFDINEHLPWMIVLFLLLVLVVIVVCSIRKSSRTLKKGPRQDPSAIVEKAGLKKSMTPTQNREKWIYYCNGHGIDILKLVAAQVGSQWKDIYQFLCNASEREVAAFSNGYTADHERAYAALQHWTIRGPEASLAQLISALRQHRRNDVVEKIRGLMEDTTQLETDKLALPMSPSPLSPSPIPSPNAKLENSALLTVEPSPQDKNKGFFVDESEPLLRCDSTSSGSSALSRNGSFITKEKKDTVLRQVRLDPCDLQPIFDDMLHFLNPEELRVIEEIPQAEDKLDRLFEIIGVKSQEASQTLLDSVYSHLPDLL
# Test: KD of DR6-targeting peptides for binding to DR6 protein by MST
# Conditions: Tables S1 and S2, average of three independent experiments in triplicate, NB = No binding, read-out: KD ± SEM
# Experimental: For labeling DR6 protein with Red‐tris‐NTA second‐generation dye, equal volume of DR6 protein (200 × 10^–9 M) and dye (100 × 10^–9 M) were mixed. The solution was incubated for 30 min at room temperature and centrifuged for 10 min at 4 ℃ and 15 000 × g. The DR6 protein was labeled and ready for the binding assay. Prepare 25 µL of the DR6‐targeting peptides at 20 × 10^–6 M and add 10 µL of the PBS‐T into the PCR tubes 2–12. Transfer 20 µL DR6‐targeting peptides into the PCR tube 1 and then transfer 10 µL of the DR6‐targeting peptides from tube 1 to tube 2 with a pipette and mix by pipetting up and down multiple times. Transfer 10 µL to tube 3 and mix. Repeat the procedure for tube 4–12. Add 10 µL of labeled protein to each tube (1–12) and mix by pipetting. The final DR6 protein concentration was 50× 10^−9 M. Load the capillaries and measure the samples by NanoTemper Monolith NT.015.^[ ^51 , ^52 ^]
row,Compound,Kd [µM]
1,CC(C)C[C@@H](NC(=O)[C@H]1CCCN1C(=O)[C@@H](C)NC(=O)[C@H]1CCCN1C(=O)[C@@H](CC(C)C)NC(=O)[C@H](N)Cc1ccc(O)cc1)C(=O)N1CCC[C@@H]1C(=O)O [AHP-D-03] (H-[dY][dL][dP][dA][dP][dL][dP]-OH),4.734 ± 0.0088
2,CC[C@@H](C)[C@@H](NC(=O)[C@H](N)[C@H](C)O)C(=O)N[C@H](CC(=O)O)C(=O)N[C@H](C)C(=O)N[C@@H](C(=O)N[C@@H](C(=O)N1CCC[C@@H]1C(=O)O)[C@H](C)O)[C@H](C)O [AHP-D-12] (H-[dT][dI][dD][dA][dT][dT][dP]-OH),55.1 ± 27.6
3,C[C@H](O)[C@@H](NC(=O)[C@@H](CC(=O)O)NC(=O)[C@H](NC(=O)[C@@H](Cc1c[nH]cn1)NC(=O)[C@H](N)CO)[C@H](C)O)C(=O)N[C@H](CC(N)=O)C(=O)N[C@H](CCC(N)=O)C(=O)O [AHP-D-13] (H-[dS][dH][dT][dD][dT][dN][dQ]-OH),3.174 ± 0.0088
4,CC(C)C[C@@H](NC(=O)[C@H]1CCCN1C(=O)[C@@H](C)NC(=O)[C@H]1CCCN1C(=O)[C@@H](CC(C)C)NC(=O)[C@H]1CCCN1)C(=O)N[C@H](Cc1ccc(O)cc1)C(=O)O [AHP-DRI-03] (H-[dP][dL][dP][dA][dP][dL][dY]-OH),1.219 ± 0.00702
5,C[C@H](O)[C@@H](NC(=O)[C@@H](CC(=O)O)NC(=O)[C@H](NC(=O)[C@@H](CC(N)=O)NC(=O)[C@H](N)CCC(N)=O)[C@H](C)O)C(=O)N[C@H](Cc1c[nH]cn1)C(=O)N[C@H](CO)C(=O)O [AHP-DRI-13] (H-[dQ][dN][dT][dD][dT][dH][dS]-OH),0.8627 ± 0.00659
6,AFMYSLP [AHP-14],0.457 ± 0.0116
7,AGHFSLW [AHP-21],> 10
8,ANLLYES [AHP-04],> 10
9,FQFRLQS [AHP-02],> 10
10,GFSHYFP [AHP-11],> 10
11,HSTAPQL [AHP-08],> 10
12,HSYPYTQ [AHP-17],> 10
13,KFLQVTN [AHP-16],> 10
14,KLGPVCP [AHP-06],> 10
15,KLVPEPS [AHP-09],> 10
16,LMTTKSD [AHP-22],> 10
17,LPRSPLA [AHP-20],> 10
